# Measurements taken from patent US7332328B2, “Microcolumn-platform based array for high-throughput analysis” (Corning Incorporated, priority 2001, dated 2008).
# Target: adrenergic β1 receptor (Homo sapiens, UniProt P08588)
# Test: Ligand binding assay on adrenergic β1 receptor arrays printed on microcolumns
# Conditions: 5 nM labeled ligand, microcolumn #1, about one hour incubation
# Experimental: These glass microcolumns were coated with a thin gold layer and functionalized with GAPS. […] To assay ligand binding, the microcolumns were inserted into the wells of an 1×8-Stripwell plate (Corning®) containing a fluorescently-labeled β1 receptor ligand (bodipy-TMR CGP12177) (5 nM) in a ligand binding buffer (50 mM Tris-HCl, 2 mM EDTA, 1 mM MgCl2, pH 7.4, 0.1% BSA). […] Following incubation of about one hour, the microcolumns were removed, washed, and scanned to assess ligand binding on the array.
# Chain of adrenergic β1 receptor (P08588 whole entry): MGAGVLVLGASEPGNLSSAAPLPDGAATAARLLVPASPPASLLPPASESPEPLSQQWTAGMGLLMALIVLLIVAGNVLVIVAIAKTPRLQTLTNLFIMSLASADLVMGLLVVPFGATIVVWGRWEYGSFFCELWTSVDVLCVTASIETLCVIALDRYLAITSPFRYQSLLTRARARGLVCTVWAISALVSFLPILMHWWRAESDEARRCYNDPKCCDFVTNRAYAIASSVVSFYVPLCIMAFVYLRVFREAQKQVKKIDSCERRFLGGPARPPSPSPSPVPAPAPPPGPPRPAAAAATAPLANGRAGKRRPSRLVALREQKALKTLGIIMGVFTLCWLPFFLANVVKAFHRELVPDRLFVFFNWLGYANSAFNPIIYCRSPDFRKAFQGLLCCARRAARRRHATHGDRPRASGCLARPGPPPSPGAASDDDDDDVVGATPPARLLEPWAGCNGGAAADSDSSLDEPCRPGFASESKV
substance,measurement,value
bodipy-TMR CGP12177,Binding of fluorescently-labeled ligand to the β1 receptor array (fluorescent signal),high fluorescent signal
